# Results reported in US20160022757A1, “THERAPEUTIC METHODS FOR TREATING SOLID TUMORS AND RELATED DIAGNOSTIC METHODS” (ICAHN SCHOOL OF MEDICINE AT MOUNT SINAI, priority 2013, published 2016).
# Entries after “also recorded” stand apart in the source; their conditions may differ.
# How the values were obtained:
# [1] = tested on: ras^G12V p53^RNAi pten^RNAi apc^RNAi animals (adult hindgut); test: Dissemination (distant migration) after compound feeding, four-hit model; type: in vivo, Drosophila; conditions: for distant migration (dissemination into the abdominal cavity): four-hit model ras^G12V p53^RNAi pten^RNAi apc^RNAi, compounds fed for one week, single agent; for dissemination in combination with bortezomib: fed together with low non-toxic bortezomib (1 μM)
# Experimental: (§1) Targeted expression in the adult hindgut: Multigenic combinations were targeted to the adult hindgut using the hindgut specific gal4 line byn-gal4 (V. Hartenstein) and tub-gal80^ts (Bloomington). Crosses were kept at 16° C. to keep the transgenes silent during development and adult females were transferred to 29° C. to induce transgene expression. In addition, GFP and Dcr2 (Dicer 2) were co-expressed to mark the hindgut cells and to facilitate RNAi-mediated knock-down, respectively.
# (§2) Compound Feeding: Compound treated food was made by diluting compound stocks (made in 100% DMSO) in semi-defined Drosophila medium to achieve a final concentration of 0.5% DMSO (empirically determined as the non-toxic DMSO dose in semi-defined Drosophila medium). Adult flies were kept on compound treated medium in standard Drosophila vials for 7 days (30 flies/vial, 1 ml food/vial) and provided with fresh compound food every other day.
# Compound Feeding: Compounds used in this study were (stock concentrations and sources in parentheses) AZD6244 (200 mM, Selleck Chemicals), SL327 (200 mM, Tocris), GW5074 (100 mM, Tocris), Sorafenib (200 mM, LC Labs), LY294002 (200 mM, LC Labs), Rapamycin (200 mM, LC Labs), BEZ235 (20 mM, LC Labs), Dasatinib (200 mM, LC Labs), SP600125 (200 mM, LC Labs), Bortezomib (200 mM, LC Labs), Cisplatin (200 mM, Sigma), LBH589 (200 mM, LC Labs), Wortmannin (200 mM, LC Labs), PI-103-HCl (100 mM, Tocris), Everolimus (100 mM, LC Labs) and Enzastaurin (50 mM, LC Labs).
# Imaging and Scoring: Fluorescence images were taken using a Leica TCS SPE confocal microscope and processed using the Leica LAS-AF software. Scoring and imaging of SA-β-gal staining was performed using an Olympus BX41 microscope and a Nikon DS-Ri1 camera. Distant migration was imaged and scored using a Leica MZ16F dissecting scope with a GFP filter under 10× magnification.
# Statistical Analysis: Statistical significance for the distant migration assay was calculated using Fisher's exact test as this test allows the analysis of contingency tables where sample sizes are relatively small. Use of a 4×2 contingency table allowed pairwise comparisons of the distant migration phenotype, which has four phenotypic categories, between different genotypes and/or treatment conditions. Each experiment was performed in duplicate (n=25-30 for each replicate) and multiple times. Error bars indicate standard error of the mean.
# Given the low success rate of drug approvals for colorectal cancer (3) the study herein asked whether differences in genetic complexity influence a tumor model's response to drugs. Sixteen compounds that target key cancer relevant pathways and cellular processes were selected (FIG. 11); many of these compounds are currently in clinical trials including for colorectal cancer (25-27). Commencing the day of transgene induction, animals were fed compounds for one week and then scored for issemination into the abdominal cavity. Final compound concentrations in the media ranged from 1 μM-1 mM, corresponding to approximately 10-200 ng/day/animal based on adult feeding rates (FIG. 11).
# [2] = tested on: PI3K and TORC1 activity (p-4EBP); test: Western blot analysis of PI3K pathway activity in hindguts after compound treatment; type: in vivo, Drosophila; conditions: four-hit hindguts; for p-4EBP levels: seven days
# Source text: Western Blot Analysis: Primary antibodies used were rabbit anti-Drosophila phospho-AKT (S505) (1:1000, Cell Signaling), rabbit anti-pan-AKT (1:1000, Cell Signaling), rabbit anti-phospho-4EBP (T37/46) (1:1000, Cell Signaling), rabbit anti-human phospho-AKT (Ser473) (1:1000, Cell Signaling), mouse anti-α-actin (1:1000, Cell Signaling) and mouse anti-Syntaxin (1:1000, DSHB). HRP-conjugated anti-mouse and anti-rabbit antibodies were used as secondary antibodies (1:5000, Cell Signaling). For signal detection, Immobilon Chemiluminescent HRP Substrate (Millipore) was used.
# as §2
# Western Blot Analysis: Tissue lysates for western analysis were made by grinding 10-20 hindguts in lysis buffer (50 mM Tris-HCl, 150 mM NaCl, 1 mM EDTA, 1% NP-40) supplemented with protease and phosphatase inhibitor cocktails (Sigma). Lysates were boiled for 10 minutes in SDS Sample buffer and reducing agent, resolved on SDS-Page and transferred using standard protocols. Cell lysates are prepared similarly. Protein concentrations were determined using BioRad Protein Assay Dye Reagent following manufacturer's instructions.
# DLD-1 cells = test: MTT viability assay, DLD-1 cells; type: cell-based, human; conditions: for viability after bortezomib pre-treatment alone: doses that sensitize to BEZ235
# Experimental: (§3) Cell culture: Parental DLD-1 and HCT-116 cell lines (ATCC) and their PI3K wildtype derivatives (DLD-1 WT and HCT116 WT) (38) that were obtained from Dr. Bert Vogelstein's laboratory were maintained using DMEM with 10% FBS. All experiments were done under low serum (2.5% FBS) conditions (38). MTT assay: Cells were grown in sterile 25 cm^2 flasks to 80% confluency, trypsinized, resuspended in 100 mL DMEM with 2.5% FBS and seeded in 96-well plates in equal numbers. After 24 hours, cells were treated with compounds diluted in DMEM with 2.5% FBS as indicated for 1, 2 or 3 days. MTT assay was performed by replacing compound containing medium with fresh DMEM with 2.5% FBS and 10 mg/ml MTT reagent (Thiazoyl Blue tetrazolium Bromide, Fisher Scientific) in PBS at a ratio of 5:1 (120 μl/well; 96-well plates). Cells are incubated at 37° C. for 3 hours, then the medium is removed and cells are incubated in MTT solvent (4 mM HCl, 0.1% NP40 in isopropanol) on a shaker. The amount of MTT formazan in the resulting solution is spectrophotometrically measured at […] (and a reference filter of 620 nM). Adjusted absorbance value for each well is calculated using the following formula: (OD590SAMPLE-OD590BLANK)−(OD620SAMPLE-OD620BLANK). Each experiment is done in quadruple and relative viability is expressed as fold change in adjusted absorbance compared to untreated and DMSO treated controls in each plate.
# HCT116 cells = test: MTT viability assay, HCT116 cells; type: cell-based, human
# Experimental: as §3
# PI3K pathway = test: Western blot of PI3K pathway activation in DLD-1 cells; type: cell-based, human; conditions: DLD-1 cells treated with bortezomib
# Source text: Western Blot Analysis: Primary antibodies used were rabbit anti-Drosophila phospho-AKT ([MUT]) (1:1000, Cell Signaling), rabbit anti-pan-AKT (1:1000, Cell Signaling), rabbit anti-phospho-4EBP (T37/46) (1:1000, Cell Signaling), rabbit anti-human phospho-AKT (Ser473) (1:1000, Cell Signaling), mouse anti-α-actin (1:1000, Cell Signaling) and mouse anti-Syntaxin (1:1000, DSHB). HRP-conjugated anti-mouse and anti-rabbit antibodies were used as secondary antibodies (1:5000, Cell Signaling). For signal detection, Immobilon Chemiluminescent HRP Substrate (Millipore) was used. […] All experiments were done under low serum (2.5% FBS) conditions (38). […] Lysates were boiled for 10 minutes in SDS Sample buffer and reducing agent, resolved on SDS-Page and transferred using standard protocols. Cell lysates are prepared similarly. Protein concentrations were determined using BioRad Protein Assay Dye Reagent following manufacturer's instructions.
# [3] = tested on: ras^G12V p53^RNAi pten^RNAi apc^RNAi animals; conditions: Drosophila, in vivo, 7 days
# Experimental: Targets, feeding doses and toxicity of compounds. a, List of compounds used for feeding experiments along with their targets, mechanisms of actions and concentrations used in the food. Estimated amount ingested was calculated based on our observations that adult females ingest approximately 0.2 μl of food per day (not shown). Estimated amount of ingested compound was also converted into mg/kg body weight/day using 1.1 mg as the average weight of an adult female. b, Survival curves of ras^G12V p53^RNAi pten^RNAi apc^RNAi animals fed the indicated compounds.
# [4] = tested on: ras^G12V animals (adult hindgut); test: Dissemination (distant migration) into the abdominal cavity after compound feeding, ras^G12V model; type: in vivo, Drosophila; conditions: compounds fed for one week, single agent
# Experimental: as §1
# as §2, with “day. […]” for “day.”
# (§4) Imaging and Scoring: Fluorescence images were taken using a Leica TCS SPE confocal microscope and processed using the Leica LAS-AF software. […] Distant migration was imaged and scored using a Leica MZ16F dissecting scope with a GFP filter under 10× magnification.
# (§5) Statistical Analysis: Statistical significance for the distant migration assay was calculated using Fisher's exact test as this test allows the analysis of contingency tables where sample sizes are relatively small. […]
# [5] = tested on: ras^G12V pten^RNAi animals; test: Dissemination after compound feeding, ras^G12V pten^RNAi double; type: in vivo, Drosophila; conditions: single agent
# Experimental: as §1
# as §2, with “day. […]” for “day.”
# as §4, §5
# [6] = tested on: ras^G12V p53^RNAi apc^RNAi animals; test: Dissemination after compound feeding, ras^G12V p53^RNAi apc^RNAi triple; type: in vivo, Drosophila; conditions: single agent
# Experimental: as §1
# as §2, with “day. […]” for “day.”
# as §4, §5
smiles,measurement,setting,value
CC(C)C[C@H](NC(=O)[C@H](Cc1ccccc1)NC(=O)c1cnccn1)B(O)O [bortezomib],distant migration (dissemination into the abdominal cavity),[1],only showed efficacy at doses that otherwise killed more than 70% of the animals
same,PI3K and TORC1 activity,[2]; low doses of bortezomib,directed upregulation of PI3K and TORC1 activity
same,p-4EBP levels,[2]; bortezomib treatment alone,increase in p-4EBP levels
same,viability after bortezomib pre-treatment alone,DLD-1 cells; DLD-1 cells,did not affect survival
same,viability after bortezomib pre-treatment alone,"DLD-1 cells; DLD-1 cells, listed as Bortezomib",does not affect the viability; also recorded: has no effect on viability
same,viability after bortezomib pre-treatment alone,"HCT116 cells; HCT116 cells, doses that sensitize to BEZ235",does not affect the viability; also recorded: has no effect on viability
same,PI3K pathway activation status,PI3K pathway,activated the PI3K pathway
same,animals killed at doses showing efficacy,[3],more than 70 % of the animals
Cc1[nH]c2ccccc2c1CCNCc1ccc(/C=C/C(=O)NO)cc1 [LBH589],distant migration (dissemination into the abdominal cavity),[4],effective against ras^G12V
same,distant migration (dissemination into the abdominal cavity),[1],not against ras^G12V p53^RNAi pten^RNAi apc^RNAi at non-toxic doses
Cn1c(=O)n(-c2ccc(C(C)(C)C#N)cc2)c2c3cc(-c4cnc5ccccc5c4)ccc3ncc21 [BEZ235],dissemination in combination with bortezomib,[1]; four-hit model,synergized
same,"dissemination after sequential treatment, bortezomib followed by BEZ235","[1]; four-hit model, sequential feeding",effective; also recorded: much more effective than concurrent feeding
same,"dissemination, response to BEZ235",[5],sufficient to direct resistance to BEZ235
same,"dissemination, response to BEZ235",[6],rendered the animals sensitive to BEZ235
same,p-4EBP levels,[2]; combined with bortezomib,reduced p-4EBP back to baseline levels
same,sensitivity to BEZ235 after pretreatment with bortezomib,"DLD-1 cells; DLD-1 cells, bortezomib pretreatment for 24 hours",Increased sensitivity; also recorded: rendered DLD-1 cells sensitive to BEZ235 treatment; also recorded: sensitize the cells to BEZ235
same,"BEZ235 dose response, parental versus PI3K wildtype line",DLD-1 cells; DLD-1 parental (Ras and PI3K active) vs DLD-1-WT,more resistant to BEZ235 than the derivative line DLD-1-WT
same,sensitivity to BEZ235 after pretreatment with bortezomib,"HCT116 cells; HCT116 cells, bortezomib pretreatment for 24 hours",sensitize the cells to BEZ235
same,"BEZ235 dose response, parental versus PI3K wildtype line",HCT116 cells; HCT116 parental (Ras and PI3K active) vs HCT116-WT,"more resistant to BEZ235 than its PI3K pathway wildtype counterpart, HCT116-WT"
Oc1cccc(-c2nc(N3CCOCC3)c3oc4ncccc4c3n2)c1 [P1103],dissemination in combination with bortezomib,[1]; four-hit model,synergized
"O=c1cc(N2CCOCC2)oc2c(-c3ccccc3)cccc12 [LY294002, 2-(4-morpholinyl)-8-phenyl-4H-1-benzopyran-4-one]",dissemination in combination with bortezomib,[1]; four-hit model,synergized
same,p-4EBP levels,[2]; combined with bortezomib,reduced p-4EBP back to baseline levels
